From patent US20200148803A1, “POLYMERIZABLE MULTIFUNCTIONAL ANTIMICROBIAL QUATERNARY AMMONIUM MONOMERS, METHODS OF SYNTHESIS, AND USES THEREOF” (ADA Foundation, priority 2018, published 2020) come the findings set out here.

The test system of data set [1] is human liver cells (HepG2-AD13). The data set can be described thus: Direct contact cytotoxicity, Luciferase Assay System, HepG2-AD13 cells. Type of data set: cell-based. As to conditions: 6 h. On the procedure: Immortalized human liver cells (hereafter HepG2-AD13) were obtained from collaborators at Aichi Gakuin University, Japan. The cells were maintained (37° C., 5% CO2) in Dulbecco's Modified Eagle's medium supplemented with 10% fetal bovine serum. For experiments, cells were obtained from a subconfluent stock culture.
Direct contact cytotoxicity testing was conducted by exposing cells to two-fold serial dilutions of AMmis2 (Table 8) to approximate the maximum possible exposure, assuming 7% mass fraction in the composite with a maximum of 2% leaching. To account for multiplicity and variable size of restorations, a four-fold greater dilution was also included in the testing. After 6 h, cells were assessed for cell viability using a Luciferase Assay System (Promega Corp., Madison, Wis.). Negative controls were without the AMmis2 and/or cells. Mean+standard error was obtained from five independent replicates tested in quadruplicate.

Data set [2] has as its system human gingival fibroblasts (HGF). The data set can be described thus: Direct contact cytotoxicity, LIVE/DEAD viability, HGF cells. Type of data set: cell-based. As to conditions: for effect of monomer concentration on HGF cell viability: two-fold serial dilutions, 24 h and 72 h. On the procedure: (§1) Immortalized human gingival fibroblasts (HGF) were purchased from Applied Biological Materials, Inc. (Richmond, British Columbia, Canada). […] For experiments, cells were obtained from a subconfluent stock culture.
(§2) Direct contact cytotoxicity testing was conducted as previously described^7, 8. Briefly, cells were exposed to two-fold serial dilutions of AMadh series monomers or AMsil series monomers to approximate the maximum possible exposure, (Table 9). Table 9 illustrates biocompatibility testing using maximum possible monomer exposure (mmol/L), assuming 7% mass fraction in the restorative with a maximum of 2% leaching. To account for multiplicity and variable size of restorations, a two- and four-fold greater dilution was also included in the testing. After 24 and 72 h, cells were assessed for cell viability using the LIVE/DEAD® Viability/Cytotoxicity kit (Life Technologies, Corp., Grand Island, N.Y.). Cellular metabolic activity was subsequently assessed using the CellTiter® AQueous One Solution Reagent (Promega, Corp., Madison, Wis.). Negative controls were without the novel monomer and/or cells. Mean+standard error was obtained from five independent replicates tested in triplicate.

The test system is the same in data set [3]. Put plainly: Cellular metabolic activity (CellTiter AQueous One Solution Reagent), HGF cells. It counts as cell-based. The conditions noted are these: two-fold serial dilutions, 24 h and 72 h. The procedure: as §1, §2
A further data set concerns CCL1 cells. Put plainly: Cellular metabolic activity (CellTiter AQueous One Solution Reagent), CCL1 cells. The conditions noted are these: two-fold serial dilutions, 24 h and 72 h. It counts as cell-based.
Data set [4] is described as follows: Sessile drop water contact angle (CA) on resin pellets. It counts as physicochemical. The conditions noted are these: for CA / reduction of CA relative to UPE resin control: 10 mass % monomer in UPE resin. On the procedure:
(§3) Experimental resin (UPE) was formulated from the commercially available monomers urethane dimethacrylate (UDMA, 50.91% w/w), polyethylene glycol extended urethane dimethacrylate (PEG-U, 18.18% w/w), and ethyl 2-(hydroxymethyl)acrylate (EHMA, 30.91% w/w). A conventional visible light initiator system comprised of camphorquinone (0.2% w/w) and ethyl-4-N,N-dimethylamino benzoate (4EDMAB, 0.8% w/w) was utilized. […] Copolymer specimens (beams) were prepared by depositing UPE (UPE resin control) and AM-UPE resins into glass molds (2 mm×2 mm×25 mm) and photopolymerizing them with a dental curing light (Triad 2000, Dentsply, Charlotte, N.C., USA) for 2 minutes from two sides. Copolymer specimens (pellets) were prepared by depositing UPE and AM-UPE resins into a stainless-steel mold (1 mm×16 mm), sandwiched between two sheets of Mylar film and two glass slides and photopolymerized in the same manner as the beam samples. Degree of vinyl conversion (DVC) of UPE and AM-UPE resins was determined utilizing beam samples by collecting the near infra-red (NIR) spectra (Nexus 670, ThermoFisher, Madison, Wis., USA) before and 24 h after polymerization and calculating the reduction in absorption band at 6165 cm^−1 corresponding to the vinyl (C═C—H) overtone signal. By maintaining a constant specimen thickness, a need for an invariant internal standard was eliminated. The DVC was calculated as: […]
(§4) where Area(polymer) and Area(monomer) correspond to the areas under 6165 cm^−1 peaks after and before the polymerization, respectively. After DVC analysis, flexural strength (FS) and elastic modulus (E) of beam specimen were determined employing the Universal Testing Machine (Instron 5500R, Instron Corp., Canton, Mass., USA). The load was applied (at cross-head speed of 1 mm/min) to the center of a specimen positioned on a test device with supports 20 mm apart. The FS and E of the specimens (three replicates/experimental group) was calculated as instructed in the ISO4049:2009 document. Changes in hydrophilicity/hydrophobicity of UPE resins due to the introduction of AM monomers were assessed on pellet specimen by sessile drop contact angle (CA) measurements (drop shape analyzer DSA100, Krüss GmbH, Hamburg, Germany). Following the deposition of 4 μL water droplets on the resin pellets, the pellets were imaged after 1 min resting time with a camera at the points of intersection (three-phase contact points) between the drop contour and the projection of the surface (baseline). The CA water values were calculated employing the Krüss Advance software. At least four repetitive measurements were performed in each group. Analysis of variance (ANOVA) and Newman-Keuls multiple paired comparisons (at 95% confidence level) were used to analyze the experimental data as a function of resin composition and establish a statistical significance of differences between the experimental groups (WINKS 7.0.9, TexaSoft, Cedar Hills, Tex., USA).

Data set [5] can be described thus: Degree of vinyl conversion (DVC) by near infra-red spectra of copolymer beams. It counts as physicochemical. On the procedure:
as §3, §4

Data set [6] concerns mouse subcutaneous connective tissue fibroblasts (NCTC clone 929, CCL1). Put plainly: Direct contact cytotoxicity, LIVE/DEAD viability, CCL1 cells. Type of data set: cell-based. As to conditions: for effect of monomer concentration on CCL1 cell viability: two-fold serial dilutions, 24 h and 72 h.

For “2-(methacryloyloxy)-N,N,N-trimethylethan-1-aminium methacrylate [AMmis2]”, in data set [1] (concentrations ≤1.812 mmol/L), the “effect on HepG2-AD13 cells compared to negative control” value is reported as “did not exert a significant effect”. Moreover, the “relative luminescence units, fold greater than at all lower concentrations” value in data set [1] (concentrations ≥3.623 mmol/L) is “at least 1.5 fold”.

In the case of `C=C(C)C(=O)OCC[N+](C)(C)CCC[Si](OC)(OC)OC.[I-]` [AMsil1, N-(2-(methacryloyloxy)ethyl)-N,N-dimethyl-3-(trimethoxysilyl)propan-1-aminium iodide], in data set [2] (24 h vs 72 h, independent of concentration), the “exposure time reduced HGF viability, difference of means” value is 19.73. The “number of live HGFs” value in data set [2] (lower concentrations (≤0.13 mmol/L)) is “decreased”. For the same compound, the “effect of monomer concentration on HGF cell viability” value in data set [2] is “exerted a main effect”. Moreover, the “effect on metabolic activity of HGF cells” value in data set [3] is “did not statistically affect the metabolic activity”. Besides, in the data set with CCL1 cells, the “effect of monomer concentration on CCL1 metabolic activity” value is “did not affect”. Moreover, the CA in data set [4] turned out to be 46.9±5.9 °. Further, the “reduction of CA relative to UPE resin control” value in data set [4] was 23%. Also, the entries for the “effect on hydrophobic-hydrophilic properties of the copolymer” value in data set [4] (10 mass percent in UPE resin) and in data set [4] (20 mass percent in UPE resin) were “a shift towards the lower CA values” and “maintained the hydrophobic-hydrophilic balance”, respectively. In addition, the “reduction of DVC relative to UPE resin control” value is “approximately 27%” in data set [5] (10 mass percent in UPE resin) and around 17% in data set [5] (20 mass percent in UPE resin). Besides, the “dead CCL1 cells” value is given as 128.0 ± 27.1 % Control in data set [6] (0.07 mmol/L, 24 h); 134.0 ± 36.5 % Control in data set [6] (0.07 mmol/L, 72 h); 85.1 ± 11.2 % Control in data set [6] (0.13 mmol/L, 24 h); 140.3 ± 32.7 % Control in data set [6] (0.13 mmol/L, 72 h); 96.8 ± 15.5 % Control in data set [6] (0.26 mmol/L, 24 h); 117.4 ± 27.1 % Control in data set [6] (0.52 mmol/L, 24 h). In addition, the “dead CCL1 cells” value in data set [6] (0.52 mmol/L, 72 h) came to 124.6 ± 22.9 % Control; in data set [6] (1.04 mmol/L, 24 h), 96.0 ± 16.2 % Control; in data set [6] (1.04 mmol/L, 72 h), 128.8 ± 20.2 % Control; in data set [6] (2.09 mmol/L, 24 h), 86.1 ± 11.7 % Control; in data set [6] (2.09 mmol/L, 72 h) it was 147.6 ± 38.5 % Control; in data set [6] (4.17 mmol/L, 24 h), 85.8 ± 13.1 % Control. Besides, the “dead CCL1 cells” value in data set [6] (4.17 mmol/L, 72 h) is recorded as 91.6 ± 13.7 % Control; in data set [6] (8.34 mmol/L, 24 h), 93.0 ± 15.4 % Control; in data set [6] (8.34 mmol/L, 72 h), 106.8 ± 7.4 % Control. The “live CCL1 cells” value in data set [6] (0.07 mmol/L, 24 h) amounted to 156.8 ± 21.4 % Control; in data set [6] (0.07 mmol/L, 72 h) it was 122.5 ± 5.6 % Control; in data set [6] (0.13 mmol/L, 24 h), 145.1 ± 14.8 % Control; in data set [6] (0.13 mmol/L, 72 h) it was 122.1 ± 8.5 % Control; in data set [6] (0.26 mmol/L, 24 h), 154.5 ± 25.0 % Control; in data set [6] (0.26 mmol/L, 72 h) it was 108.9 ± 18.6 % Control. In addition, the “live CCL1 cells” value in data set [6] (0.52 mmol/L, 24 h) is recorded as 147.3 ± 20.3 % Control; in data set [6] (0.52 mmol/L, 72 h) it was 122.9 ± 11.1 % Control; in data set [6] (1.04 mmol/L, 24 h) it was 157.9 ± 18.8 % Control; in data set [6] (1.04 mmol/L, 72 h) it was 142.0 ± 6.5 % Control; in data set [6] (2.09 mmol/L, 24 h) it was 152.5 ± 20.3 % Control; in data set [6] (2.09 mmol/L, 72 h), 136.0 ± 7.2 % Control. For the same compound, the “live CCL1 cells” value in data set [6] (4.17 mmol/L, 24 h) came out at 161.3 ± 15.2 % Control; in data set [6] (4.17 mmol/L, 72 h) it was 132.1 ± 6.7 % Control; in data set [6] (8.34 mmol/L, 24 h), 149.6 ± 37.4 % Control; in data set [6] (8.34 mmol/L, 72 h), 110.8 ± 12.3 % Control. Besides, the “exposure time reduced the number of live CCL1 cells, fold difference of mean” value in data set [6] (24 h vs 72 h) amounted to 1.2 fold. The “effect of monomer concentration on CCL1 cell viability” value in data set [6] is recorded as “did not exert a statistical effect”.

For `C=C(C)C(=O)OCC[N+](C)(C)CCCCCCCCCCC[Si](OC)(OC)OC.[Br-]` [AMsil2, N-(2-(methacryloyloxy)ethyl)-N,N-dimethyl-11-(trimethoxysilyl)undecan-1-aminium bromide], the “effect of exposure time on HGF live cells, difference of means” value in data set [2] (24 h vs 72 h, regardless of concentration) is recorded as around 23%. In data set [2], the “effect of monomer concentration on HGF cell viability” value is “exhibited a concentration effect”. Further, in data set [2] (≥1.82 mmol/L), the “reduction of number of live HGFs compared to the control group” value is listed as “more than 3 fold”. Moreover, the “effect on metabolic activity of HGF cells” value in data set [3] is listed as “exhibited an effect”. Moreover, the “effect of monomer concentration on CCL1 metabolic activity” value in the data set on CCL1 cells is on record as “exerted an effect”. Also, the CA in data set [4] is reported as 37.4±9.2 °. Further, the “reduction of CA relative to UPE resin control” value in data set [4] worked out at 38%. For the same compound, the “effect on hydrophobic-hydrophilic properties of the copolymer” value in data set [4] (10 mass percent in UPE resin) was “a shift towards the lower CA values”; in data set [4] (20 mass percent in UPE resin), “maintained the hydrophobic-hydrophilic balance”. In addition, in data set [5] (10 mass percent in UPE resin), the “DVC compared to UPE resin control” value is given as “did not change the copolymer DVC”. The “reduction of DVC relative to UPE resin control” value in data set [5] (20 mass percent in UPE resin) came to 12.9%. Also, in data set [6], the “effect of monomer concentration on CCL1 cell viability” value was “exerted a main effect”. Also, in data set [6] (≥1.82 mmol/L, 72 h exposure), the “percentage of live CCL1 cells, fold lower compared to concentrations ≤0.91 mmol/L” value fell in the range of 3 to 4 fold. In addition, in data set [6] (≥3.64 mmol/L, 24 h exposure), the “live CCL1 cells compared to lower concentrations” value is listed as “lower”.
